Laboratory results from the NIST ThermoML archive (doi:10.1021/acs.jced.5b00654).
Values joined by “and” are separate entries in the source; they are usually repeats but may differ in a detail not shown here. Identical values can stand only once.

Conditions: Fluid (supercritical or subcritical phases); for mass density: Buoyancy - hydrostatic balance with magnetic suspension - one sinker; for viscosity: Vibrating wire viscometry

CCCC [butane]
Conditions | mass density | viscosity
298.11 K, 162.81 kPa | 4.0157 kg/m3 | 0.007353 mPa·s
298.11 K, 162.82 kPa | 4.016 kg/m3 | 0.007354 mPa·s
298.12 K, 142.16 kPa | 3.4823 kg/m3 | 0.007359 mPa·s
298.12 K, 221.35 kPa | 5.5716 kg/m3 | 0.007333 mPa·s
298.12 K, 221.39 kPa | 5.5728 kg/m3 | 0.007334 mPa·s
298.13 K, 123.43 kPa | 3.0049 kg/m3 | 0.007365 mPa·s
298.13 K, 123.44 kPa | 3.0052 kg/m3 | 0.007363 mPa·s
298.13 K, 142.17 kPa | 3.4826 kg/m3 | 0.007359 mPa·s
298.14 K, 61.79 kPa | 1.4756 kg/m3 | 0.007376 mPa·s
298.14 K, 61.8 kPa | 1.4758 kg/m3 | 0.007378 mPa·s
298.14 K, 82.37 kPa | 1.9794 kg/m3 | 0.007375 mPa·s
298.14 K, 82.38 kPa | 1.9797 kg/m3 | 0.007372 mPa·s
298.14 K, 102.9 kPa | 2.4887 kg/m3 | 0.007369 mPa·s
298.14 K, 102.91 kPa | 2.4889 kg/m3 | 0.00737 mPa·s
298.14 K, 175.29 kPa | 4.3414 kg/m3 and 4.3415 kg/m3 | 0.007347 mPa·s and 0.007346 mPa·s
298.14 K, 196.75 kPa | 4.9091 kg/m3 | 0.007342 mPa·s
298.14 K, 196.77 kPa | 4.9096 kg/m3 | 0.007341 mPa·s
298.15 K, 57.18 kPa | 1.3635 kg/m3 and 1.3636 kg/m3 | 0.007377 mPa·s and 0.007378 mPa·s
322.98 K, 450.39 kPa | 11.024 kg/m3 | 0.007953 mPa·s
323 K, 450.69 kPa | 11.032 kg/m3 | 0.007951 mPa·s
323.01 K, 450.89 kPa | 11.037 kg/m3 | 0.007953 mPa·s
323.06 K, 392.1 kPa | 9.426 kg/m3 | 0.007958 mPa·s
323.08 K, 392.5 kPa | 9.4391 kg/m3 | 0.007954 mPa·s
323.09 K, 392.9 kPa | 9.4492 kg/m3 | 0.00796 mPa·s
323.11 K, 380.74 kPa | 9.1236 kg/m3 | 0.007958 mPa·s
323.11 K, 380.78 kPa | 9.1236 kg/m3 | 0.007958 mPa·s
323.12 K, 330.12 kPa | 7.8092 kg/m3 | 0.007967 mPa·s
323.12 K, 330.36 kPa | 7.8164 kg/m3 | 0.007967 mPa·s
323.12 K, 380.76 kPa | 9.1272 kg/m3 | 0.007958 mPa·s
323.13 K, 261.18 kPa | 6.0223 kg/m3 | 0.00797 mPa·s
323.13 K, 261.21 kPa | 6.023 kg/m3 | 0.007973 mPa·s
323.13 K, 301.54 kPa | 7.0807 kg/m3 | 0.00797 mPa·s
323.13 K, 303.39 kPa | 7.1241 kg/m3 | 0.007967 mPa·s
323.13 K, 305.32 kPa | 7.1762 kg/m3 | 0.00797 mPa·s
323.13 K, 330.63 kPa | 7.8215 kg/m3 | 0.007965 mPa·s
323.14 K, 58.2 kPa | 1.2744 kg/m3 and 1.2766 kg/m3 | 0.007994 mPa·s and 0.007988 mPa·s
323.14 K, 58.21 kPa | 1.2766 kg/m3 | 0.00799 mPa·s
323.14 K, 66.38 kPa | 1.4575 kg/m3 and 1.4567 kg/m3 | 0.007991 mPa·s and 0.007994 mPa·s
323.14 K, 66.39 kPa | 1.4553 kg/m3 | 0.007994 mPa·s
323.14 K, 90.51 kPa | 1.9979 kg/m3 | 0.007987 mPa·s
323.14 K, 90.52 kPa | 1.9986 kg/m3 | 0.00799 mPa·s
323.14 K, 112.93 kPa | 2.5057 kg/m3 | 0.00799 mPa·s
323.14 K, 112.94 kPa | 2.5035 kg/m3 | 0.007991 mPa·s
323.14 K, 112.96 kPa | 2.5057 kg/m3 | 0.00799 mPa·s
323.14 K, 132.43 kPa | 2.9506 kg/m3 | 0.007991 mPa·s
323.14 K, 132.44 kPa | 2.9492 kg/m3 | 0.007989 mPa·s
323.14 K, 132.46 kPa | 2.9499 kg/m3 | 0.007989 mPa·s
323.14 K, 184.24 kPa | 4.1645 kg/m3 | 0.007979 mPa·s
323.14 K, 215.63 kPa | 4.9096 kg/m3 | 0.007976 mPa·s
323.14 K, 215.65 kPa | 4.9111 kg/m3 | 0.007976 mPa·s
323.14 K, 215.87 kPa | 4.9169 kg/m3 | 0.007974 mPa·s
323.14 K, 261.28 kPa | 6.0252 kg/m3 | 0.007968 mPa·s
323.15 K, 150.03 kPa | 3.3622 kg/m3 | 0.007982 mPa·s
323.15 K, 150.04 kPa | 3.3622 kg/m3 | 0.007982 mPa·s
323.15 K, 184.35 kPa | 4.1652 kg/m3 | 0.00798 mPa·s
323.15 K, 184.36 kPa | 4.1667 kg/m3 | 0.007979 mPa·s
348.03 K, 813.85 kPa | 19.576 kg/m3 | 0.008652 mPa·s
348.03 K, 813.99 kPa | 19.581 kg/m3 | 0.008648 mPa·s
348.03 K, 814.13 kPa | 19.586 kg/m3 | 0.008649 mPa·s
348.12 K, 677.52 kPa | 15.682 kg/m3 | 0.008631 mPa·s
348.12 K, 677.82 kPa | 15.691 kg/m3 | 0.008631 mPa·s
348.13 K, 760.25 kPa | 17.999 kg/m3 | 0.00864 mPa·s
348.13 K, 760.34 kPa | 18.002 kg/m3 | 0.008637 mPa·s
348.14 K, 93.82 kPa | 1.9124 kg/m3 | 0.008599 mPa·s
348.14 K, 93.83 kPa | 1.9131 kg/m3 | 0.008597 mPa·s
348.14 K, 293.19 kPa | 6.2173 kg/m3 | 0.008602 mPa·s
348.14 K, 293.73 kPa | 6.2296 kg/m3 | 0.008602 mPa·s
348.14 K, 618.24 kPa | 14.097 kg/m3 | 0.008621 mPa·s
348.14 K, 618.34 kPa | 14.099 kg/m3 | 0.008628 mPa·s
348.15 K, 63.28 kPa | 1.2845 kg/m3 | 0.008588 mPa·s
348.15 K, 63.3 kPa | 1.286 kg/m3 | –
